Experiments:
memory B-cells = assay: Maturation of purified B-cells into plasma cells, flow cytometry; assay type: cell-based, human; settings: 7 days; for Plasma cells (CD38highCD27highCD19neg): hrIL-2 50UI/ml; for Stimulation of B-cells to mature into plasma cells, peptide-DNA complex: peptide premixed with DNA (15 μg/mL), hrIL-2 50 UI/mL
Description: PBMCs were isolated by Ficoll-Paque centrifugation (as described above). Total B-cells were isolated by using the Human B-Cell Isolation Kit II, (Miltenyi Biotec, Bergisch Gladbach, Germany), from fresh PBMCs. The purity of B-cells was verified by flow cytometry using the monoclonal anti-human CD19 fluorescein isothiocyanate (FITC). The percentage of memory B-cells was assessed by flow cytometry using monoclonal anti-human CD19 fluorescein, anti-human CD27 allophycocyanin and anti-human CD38 Pacific Blue antibodies (BD Biosciences, San Jose, CA, USA). The majority of B-cells (>80%) were memory cells expressing CD19/CD27 and low CD38 [29].
LL37/cit-LL37/carb-LL37 were each premixed with DNA (15 μg/mL) and added to the B-cell cultures in RMPI 10% FCS, after a 15-min incubation at room temperature. At day 2, hrIL-2 at 50UI/mL was added to the cultures, which were kept in the incubator for 7 days.
Maturation of B-cells into plasma cells was investigated after 7 days culture by flow cytometry (Gallios, BeckmanCoulter, Brea, CA, USA) following surface staining with the following monoclonal antibodies: anti-human CD19 fluorescein-, CD27 allophycocyanin-, CD38 Pacific Blue-conjugated (BD Biosciences, CA, USA). Analysis of the FCS files was performed by FlowJo (BD, San Jose, CA, USA) or by Kaluza (Beckman Coulter, Indianapolis, IN, USA).

SLE CD4 T-cells = assay: T-cell proliferation (BrdU incorporation, flow cytometry); assay type: cell-based, human; settings: for SLE patients responding by T-cell proliferation: BrdU, positive if SI > 3, carb-LL37 8 of 25, native LL37 17 of 31, cit-LL37 16 of 31 SLE patients
Description: PBMCs were purified from EDTA-treated blood, on Ficoll-Hypaque (Pharmacia Fine Chemicals, Uppsala, Sweden) and were incubated (10^5 cells/well) in 96-well-flat-bottom-microplates (BD) in T-cell-medium (RPMI 1640, 10% heat-inactivated human serum, HS, Gibco), 2 mM L-glutamine, 10 U/mL penicillin and 100 μg/mL streptomycin), with/without peptides. We performed assays on fresh cells, within 1-to-3 h from collection or on PBMCs frozen in 90% FCS−10% DMSO, whose viability we assessed by Trypan blue exclusion, with an inverted microscope. Recovery of live cells was between 65 and 85% of the frozen number. At day 3 and 5, BrdU was added (1 μg/mL). BrdU-incorporation was detected by APC-labeled anti-BrdU antibody (BD Pharmingen), after surface staining for CD4, CD3, CD8 and analyzed by flow cytometry (Gallios, BeckmanCoulter, Brea, CA, USA). Internal control for T-cell viability and proliferation was PHA treatment (2 μg/mL). SI for proliferation was calculated by dividing percent of BrdU-staining in the presence of each peptide antigen (LL37, carb-LL37, cit-LL37, LL37 reverse, REV; cit-LL37 reverse, cit-REV; carb-LL37 reverse, carb-REV) by the percent obtained in the untreated cells. SI for proliferation was considered positive when the values of percent of BrdU positive cells was three times higher than the values obtained with the control peptides (SI > 3). Assays were repeated twice with each patient. In rare cases in which background proliferation (culture with REV, cit-REV, carb-REV), exceeded antigen-specific proliferation (that is response to LL37, carb-LL37, cit-LL37), the assay was repeated three times. Concomitant phenotype analysis of LL37-responder T-cells included staining for CD3, CD4, CD8, CXCR5 (CXCR5 was assessed on BrdU/CD3/CD4-positive cells).
(§1) Differences between mean values were assessed by Wilcoxon’s matched-pair signed rank test, to compare responses to antigens and control antigens in the same donor. We used Mann-Whitney test for comparison of T-cell and antibody responses between groups of patients and HD. Statistical significance was set at p < 0.05. Correlation analyses were performed by Spearman’s rank-correlation test. Data were analyzed by GraphPad Prism 7.0 or SPSS software.

[1] = tested on: native LL37-P1-specific T-cells (HLA-DRB5*0101 tetramer); assay: Peptide-MHC-tetramer staining of T-cells after PBMC stimulation; assay type: cell-based, human; settings: 6 days stimulation, CD38hi CD4 T-cells; for Control (Ctr-B5) tetramer positive T-cells: Ctr-B5 tetr, lower panels Figure S6; for LL37-specific T-cells (LL37-B5 tetramer positive): LL37-B5 tetr, upper panels Figure S6
Description: Peptide-MHC-tetramers were from ImmunAware (Denmark). Staining was performed for 40 min with 1microL of tetramer suspension at 37 °C, followed by staining for CD4 (4 °C, 20 min), without washing. After incubation with anti-CD4 antibody, cells were washed, resuspended in PBS and kept at 4 °C. Before flow cytometry-acquisition, cells were labeled with PercP-conjugated 7-AAD to exclude dead cells. The peptide-MHC-tetramers used in this study are: the HLA-DR15-P1: tetramer of HLA-DRB1*1501 LLGDFFRKSKEKIGK (corresponding to the first aa at the NH2-term of the mature native LL37), (PE-conjugated) and the control peptide-MHC-tetramer called DR15-ctr: tetramer of HLA-DRB1*1501 […]1-169-185 (PE-conjugated). The other couple of peptide-MHC-tetramers used were HLA-DRB5*0101 loaded with the same LL37 epitope as above and the control tetramer HLA-DRB5*0101 loaded with the control epitope PVSKMRMATPLLMQA (CLIP-derived).

SLE serum antibody = assay: ELISA for antibody reactivity of SLE sera to carb-/cit-/native LL37 and carb-REV, and its correlation with SLEDAI; assay type: binding, human; settings: for Antibody reactivity in SLE patients with renal damage versus without renal damage: N=6 with and N=44 without renal damage, Mann-Whitney, Figure S3 panel a P 0.047
Description: Anti-native LL37/cit-LL37/carb-LL37 antibodies were measured as described. Briefly, 96-well flat-bottom plates (Non-Binding surface polystyrene, Corning, Glendale, AZ USA) were coated with 2 μg/mL of native LL37, cit-LL37 or carb-LL37 in carbonate buffer (0.1 M NaHCHO3, pH 9) for 2 h (or overnight) and washed four times with PBS plus 0.1% Tween-20. This washing buffer was used for washing at all steps. The blocking buffer containing 2% bovine serum albumin (BSA, Sigma) in PBS was used for at least 1 h (or overnight) to saturate unspecific binding sites. After washing, sera were diluted at various concentrations (usually at 1:100 or 1:200) in PBS + 2% BSA followed by 1 h incubation with a horseradish peroxidase–conjugated (HRP) goat anti-human IgG (Sigma-Aldrich), diluted 1:10,000 in PBS. The color was developed for 5 min with 3,3′,5,5′-tetramethylbenzidine (TMB) substrate (Sigma-Aldrich). The reaction was stopped by adding 50 μL of 2 N H2SO4 and absorbance determined at 450 nm with a reference wavelength of 540 nm. Responses were considered positive when the OD measured exceeded the mean OD values measured in healthy donors’ plasma plus two standard deviations (+2SD), calculated on the HD group values, as described.
as §1

Substance	Plasma cells (CD38highCD27highCD19neg) (memory B-cells; 10 µM peptide + DNA, Figure S9b)	Plasma cells (CD38highCD27highCD19neg) (memory B-cells; 10 µM peptide alone, Figure S9a)	Plasma cells (CD38highCD27highCD19neg) (memory B-cells; 20 µM peptide + DNA, Figure S9c)	Stimulation of B-cells to mature into plasma cells, peptide-DNA complex (memory B-cells)	Proliferation of SLE CD4 T-cells (SLE CD4 T-cells; BrdU incorporation, stimulation index, Wilcoxon's test)	BrdU-positive CD3+CD4+ T-cells (SLE CD4 T-cells; BrdU staining, representative zebra plot, Figure S5a)	SLE patients responding by T-cell proliferation (SLE CD4 T-cells)	Correlation of T-cell responses to carb-LL37 and native LL37 (SLE CD4 T-cells; SI, Spearman, Figure 3b)	Correlation of T-cell proliferation with SLEDAI or autoantibodies to LL37 (SLE CD4 T-cells; SI, Spearman, Figure 4a,b)	Antigen efficiency compared to cit-LL37 (SLE CD4 T-cells; SLE cohort analyzed)	Control (Ctr-B5) tetramer positive T-cells [1]	LL37-specific T-cells (LL37-B5 tetramer positive) [1]	SLE patients showing an antibody response to the antigen (SLE serum antibody; ELISA, 2 μg/mL coated antigen, sera 1:100 or 1:200, OD 450 nm, positive: OD > mean HD + 2SD, carb-LL37 28 of 45, carb-REV 8 of 47 SLE patients)	SLE serum antibody reactivity (OD) compared to healthy donors (SLE serum antibody; ELISA, OD, Mann-Whitney's test)	Antibody reactivity in SLE patients with renal damage versus without renal damage (SLE serum antibody; ELISA)	Correlation of antibody reactivity with SLEDAI (SLE serum antibody; Spearman)	Correlation of anti-carb-LL37 with anti-cit-LL37 antibody reactivity (SLE serum antibody; Spearman, Figure 2c)	Correlation of anti-carb-LL37 with anti-native LL37 antibody reactivity (SLE serum antibody; Spearman, Figure 2d left)
L*LGDFFRK*SK*EK*IGKEFK*RIVQRIK*DFLRNLVPRTES [carb-LL37]	14.73%	7.27%	28.09%	maintained LL37 ability to stimulate the B-cells to mature into plasma cells	significant proliferation of SLE CD4 T-cells, although less efficiently than cit-LL37	18.3%	32%	correlated moderately	moderate but significant correlation	less efficient antigen compared to cit-LL37	0.39%	6.57%	62%	significant SLE serum antibody reactivity	significantly higher anti-carb-LL37 antibody reactivity	A significant correlation was appreciated	correlated significantly with anti-cit-LL37 antibody reactivity	less but still in a significant manner
LLGDFFR(cit)KSKEKIGKEFKR(cit)IVQR(cit)IKDFLR(cit)NLVPR(cit)TES [cit-LL37, LL37 citrullinated at all five arginine sites]				abolishes the B-cell maturation into plasma cells			52%				0.54%	2.48%			non-significant anti-cit- and anti-native-LL37 antibody increase	both responses also correlated with SLEDAI		
